Test results as given in US9199975B2, “Biaryl imidazole derivatives for regulating CYP17” (Asana Biosciences, LLC, priority 2011, dated 2015).

Target: T1, human CYP17 (Homo sapiens, UniProt P05093)
T1 sequence (P05093 1-508): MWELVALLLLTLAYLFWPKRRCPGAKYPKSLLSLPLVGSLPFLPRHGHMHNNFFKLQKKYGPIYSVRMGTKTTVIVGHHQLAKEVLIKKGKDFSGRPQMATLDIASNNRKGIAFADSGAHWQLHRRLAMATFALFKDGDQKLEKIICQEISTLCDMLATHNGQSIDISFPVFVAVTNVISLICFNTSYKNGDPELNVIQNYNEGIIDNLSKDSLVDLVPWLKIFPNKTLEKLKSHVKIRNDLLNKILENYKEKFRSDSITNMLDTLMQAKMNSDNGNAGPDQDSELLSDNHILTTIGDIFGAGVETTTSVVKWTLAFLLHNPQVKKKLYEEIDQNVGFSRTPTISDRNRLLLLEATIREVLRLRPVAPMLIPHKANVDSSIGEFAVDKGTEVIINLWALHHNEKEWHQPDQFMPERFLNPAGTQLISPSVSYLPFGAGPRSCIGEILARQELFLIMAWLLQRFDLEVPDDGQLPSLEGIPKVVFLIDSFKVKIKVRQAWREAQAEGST
Assay: Cell-based human CYP17 inhibition assay, H295R adrenocortical carcinoma cells
Design: H295R Adrenocortical carcinoma cells [NCI-H295A, ATCC Number CRL-2128, American Type Culture Collection; host or cells: H295R adrenocortical carcinoma cells
Conditions: 16 hours at 37° C., read-out: CYP17 (human H295R adrenal cells)
Protocol: Cell-Based Human CYP17 Inhibition Assay
A. Materials • 1. H295R Adrenocortical Carcinoma Cells and Growth Media: The media for the H295R Adrenocortical carcinoma cells [NCI-H295A, ATCC Number CRL-2128, American Type Culture Collection, Manassas, Va., US] (500 mL) was a DMEM:F12 Mix 1:1 with 5% […] BD Nu Serum; 1% (5 mL) ITS+Premix [BD Biosciences] and 1% Penstrep. • 2. LNCap-CYP17 Cells and Growth Media: Full length hCYP17a1 gene (NCBI Reference Sequence: NM_000102.3) was cloned in pCDNA3.1(+) vector between HindIII and XhoI site. The pCDNA3.1(+) vector contains the Neomycin resistance gene and was used for selection of stable cell line. The hCYP17a1 containing pCDNA3.1(+) was transfected into LNCap cells to create the LNCap-CYP17 cell line. The media for the LNCaP-CYP17 cells was RPMI 1640, 10% FBS, 1% PenStrep, Geneticin 400 μg/mL.
The H295R cells or LNCaP-hCYP17 cells were subcultured and 30,000 cells per well were seeded in a poly-d lysine plate and incubated overnight at 37° C. The next day the media was removed and 200 µL of fresh media with ^3H3-17α-hydroxy-pregnenolone (1:1000) was added. 50 μL of serially diluted compounds from a 5× plate (5 times the final desired concentration) was added. The working concentration range for active, new compounds started from a high concentration of […] with 3-fold serial dilutions generating up to 10 concentrations. The serial dilution in the 100× plate (in DMSO) and the stamping of a 5× plate (in media) from the 100× plate were carried out using a TECAN liquid handling device.
The plates were incubated overnight (16 hours) at 37° C. After 16 hours, the media was removed (approximately 220 μL) and an equal amount of chloroform was added, mixed and incubated for 30 minutes at 4 degrees. The plate was centrifuged at 4000 rpm for 15 minutes at 4° C., following which the top aqueous layer was carefully removed and added into a new deep well plate. An equal volume of activated 5% charcoal was added, mixed and incubated for 30 minutes at 4° C. The plate was then centrifuged at 4000 rpm for 15 minutes at 4° C. and the top layer carefully separated, avoiding any charcoal contamination, and placed in a white, clear bottom plate (plate cat #3610, Corning Life Sciences). An equal volume of Microscint™ 40 was added and mixed well. Following the incubation for 30 minutes, readings for the radiotracer were taken using a Microbeta® trilux.

First: CC(c1ccc(-c2cccc(F)c2)cn1)n1ccnc1 (stereo not drawn) [Example 57, 5-(3-Fluoro-phenyl)-2-(1-imidazol-1-yl-ethyl)-pyridine]
Second: CCC(c1ccc(-c2cccc(F)c2)cn1)n1ccnc1 (stereo not drawn) [Example 45, 5-(3-Fluoro-phenyl)-2-(1-imidazol-1-yl-propyl)-pyridine]
The IC50 of the first is higher: 0.05 to 0.2 µM for the first, less than 0.05 µM for the second. The second is the more potent here.

First: CCC(c1ccc(-c2ccccc2O)cn1)n1ccnc1 (stereo not drawn) [Example 37, 2-[6-(1-Imidazol-1-yl-propyl)-pyridin-3-yl]-phenol]
Second: CCC(c1ccc(-c2ccccc2C#N)cn1)n1ccnc1 (stereo not drawn) [Example 18, 2-(6-(1-(1H-imidazol-1-yl)propyl)pyridin-3-yl)benzonitrile]
The IC50 of the first is lower: less than 0.05 µM for the first, 0.201 to 10 µM for the second. The first is the more potent here.

`COc1ccc(-c2ccc(C(C)n3ccnc3)nc2)cc1` (stereo not drawn) [Example 15, 2-(1-(1H-imidazol-1-yl)ethyl)-5-(4-methoxyphenyl)pyridine] and `CCC(c1ccc(-c2ccc(OC)cc2)cn1)n1ccnc1` (stereo not drawn) [Example 47, 2-(1-Imidazol-1-yl-propyl)-5-(4-methoxy-phenyl)-pyridine] fall in the same range of IC50: 0.05 to 0.2 µM for the first, 0.05 to 0.2 µM for the second.

`CCC(c1ccc(-c2ccc(COCOC)cc2)cn1)n1ccnc1` (stereo not drawn) [Example 11, 2-(1-(1H-imidazol-1-yl)propyl)-5-(4-((methoxymethoxy)methyl)-phenyl)pyridine] and `CCOC(=O)c1ccc(-c2ccc(C(CC)n3ccnc3)nc2)cc1` (stereo not drawn) [Example 5, Ethyl 4-(6-(1-(1H-imidazol-1-yl)propyl)pyridin-3-yl)benzoate] fall in the same range of IC50: 0.05 to 0.2 µM for the first, 0.05 to 0.2 µM for the second.

`CCc1cc(F)ccc1-c1ncc(C(CC)n2ccnc2)s1` (stereo not drawn) [Example 46, 2-(2-Ethyl-4-fluoro-phenyl)-5-(1-imidazol-1-yl-propyl)-thiazole] and `CCC(c1cnc(-c2ccc(F)cc2)s1)n1ccnc1` (stereo not drawn) [Example 33, 2-(4-Fluoro-phenyl)-5-(1-imidazol-1-yl-propyl)-thiazole] cannot be ordered by IC50: less than 0.05 µM for the first, less than 0.05 µM for the second.

`CCC(c1cnc(-c2cn[nH]c2)s1)n1ccnc1` (stereo not drawn) [Example 44, 5-(1-Imidazol-1-yl-propyl)-2-(1H-pyrazol-4-yl)-thiazole] and `CCC(c1cnc(-c2ccc(O)cc2)s1)n1ccnc1` (stereo not drawn) [Example 60, 4-[5-(1-Imidazol-1-yl-propyl)-thiazol-2-yl]-phenol] fall in the same range of IC50: 0.05 to 0.2 µM for the first, 0.05 to 0.2 µM for the second.

First: CC(c1ccc(-c2ccc(F)cc2)nc1)n1ccnc1 (stereo not drawn) [Example 54, 2-(4-Fluoro-phenyl)-5-(1-imidazol-1-yl-ethyl)-pyridine]
Second: CC(c1ccc(-c2ccc(F)cc2)cn1)n1ccnc1 (stereo not drawn) [Example 34, 5-(4-Fluoro-phenyl)-2-(1-imidazol-1-yl-ethyl)-pyridine]
The IC50 of the first is higher: 0.201 to 10 µM for the first, less than 0.05 µM for the second. The second is the more potent here.

`COc1ccc(-c2ccc(C(C)(C)n3ccnc3)nc2)cc1` [Example 61, 2-(1-Imidazol-1-yl-1-methyl-ethyl)-5-(4-methoxy-phenyl)-pyridine] and `COc1ccc(-c2ccc(C(CC(C)C)n3ccnc3)nc2)cc1` (stereo not drawn) [Example 62, 2-(1-Imidazol-1-yl-3-methyl-butyl)-5-(4-methoxy-phenyl)-pyridine] fall in the same range of IC50: 0.05 to 0.2 µM for the first, 0.05 to 0.2 µM for the second.

First: CC(c1cnc(-c2ccc(F)cc2F)s1)n1ccnc1 (stereo not drawn) [Example 28, 2-(2,4-Difluoro-phenyl)-5-(1-imidazol-1-yl-ethyl)-thiazole]
Second: CC(c1cnc(-c2ccc(=O)[nH]c2)s1)n1ccnc1 (stereo not drawn) [Example 63, 5-[5-(1-Imidazol-1-yl-ethyl)-thiazol-2-yl]-1H-pyridin-2-one]
The IC50 of the first is lower: less than 0.05 µM for the first, 0.201 to 10 µM for the second.

`CCOC(=O)c1ccc(-c2ncc(C(C)n3ccnc3)s2)cc1` (stereo not drawn) [Example 55, 4-[5-(1-Imidazol-1-yl-ethyl)-thiazol-2-yl]-benzoic acid ethyl ester] and `CCC(c1cnc(-c2ccc(OC)cc2)s1)n1ccnc1` (stereo not drawn) [Example 35, 5-(1-Imidazol-1-yl-propyl)-2-(4-methoxy-phenyl)-thiazole] fall in the same range of IC50: 0.05 to 0.2 µM for the first, 0.05 to 0.2 µM for the second.

Compared with `CCC(c1ccc(-c2ccc(NC(C)=O)cc2)cn1)n1ccnc1` (stereo not drawn) [Example 43, N-{4-[6-(1-Imidazol-1-yl-propyl)-pyridin-3-yl]-phenyl}-acetamide], `CCC(c1ccc(-c2ccc(C(=O)NC)cc2)cn1)n1ccnc1` (stereo not drawn) [Example 9, 4-(6-(1-(1H-imidazol-1-yl)propyl)pyridin-3-yl)-N-methylbenzamide] is higher in IC50: 0.05 to 0.2 µM for the first, 0.201 to 10 µM for the second.

Compared with `CCC(c1ccc(-c2cccc(OC)c2)cn1)n1ccnc1` (stereo not drawn) [Example 7, 2-(1-(1H-imidazol-1-yl)propyl)-5-(3-methoxyphenyl)pyridine], `CCC(c1ccc(-c2cccc(C#N)c2)cn1)n1ccnc1` (stereo not drawn) [Example 53, 3-[6-(1-Imidazol-1-yl-propyl)-pyridin-3-yl]-benzonitrile] is higher in IC50: less than 0.05 µM for the first, 0.05 to 0.2 µM for the second.

`CCC(c1ccc(-c2ccc(O)cc2)o1)n1ccnc1` (stereo not drawn) [Example 30, 4-[5-(1-Imidazol-1-yl-propyl)-furan-2-yl]-phenol] and `CCC(c1ccc(-c2ccc(OC)cc2)o1)n1ccnc1` (stereo not drawn) [Example 27, 1-{1-[5-(4-Methoxy-phenyl)-furan-2-y]-propyl}-1H-imidazole] cannot be ordered by IC50: less than 0.05 µM for the first, less than 0.05 µM for the second.

`CC(C)(c1ccc(-c2ccc(O)cc2)s1)n1ccnc1` [Example 26, 4-[5-(1-Imidazol-1-yl-1-methyl-ethyl)-thiophen-2-yl]-phenol] and `CC(c1ccc(-c2ccc(O)cc2)s1)n1ccnc1` (stereo not drawn) [Example 49, 4-[5-(1-Imidazol-1-yl-ethyl)-thiophen-2-yl]-phenol] cannot be ordered by IC50: less than 0.05 µM for the first, less than 0.05 µM for the second.

`CCC(c1ccc(-c2ccc(OC)cc2)s1)n1ccnc1` (stereo not drawn) [Example 3, 1-(1-(5-(4-methoxyphenyl)thiophen-2-yl)propyl)-1H-imidazole] and `COc1ccc(-c2ccc(C(CC(C)C)n3ccnc3)s2)cc1` (stereo not drawn) [Example 39, 1-{1-[5-(4-Methoxy-phenyl)-thiophen-2-yl]-3-methyl-butyl}-1H-imidazole] cannot be ordered by IC50: less than 0.05 µM for the first, less than 0.05 µM for the second.

`COc1ccc(-c2ccc(C(C)n3ccnc3)s2)cc1` (stereo not drawn) [Example 36, 1-{1-[5-(4-Methoxy-phenyl)-thiophen-2-yl]-ethyl}-1H-imidazole] and `COc1ccc(-c2ccc(C(C)n3ccnc3)s2)cn1` (stereo not drawn) [Example 25, 5-[5-(1-Imidazol-1-yl-ethyl)-thiophen-2-yl]-2-methoxy-pyridine] cannot be ordered by IC50: less than 0.05 µM for the first, less than 0.05 µM for the second.

First: CC(c1ccc(-c2ccc(F)cc2)cn1)n1ccnc1 (stereo not drawn) [Example 12, 2-(1-(1H-imidazol-1-yl)ethyl)-5-(4-fluorophenyl)pyridine]
Second: CCC(c1ccc(-c2ccc(C(N)=O)cc2)cn1)n1ccnc1 (stereo not drawn) [Example 10, 4-(6-(1-(1H-imidazol-1-yl)propyl)pyridin-3-yl)benzamide]
The IC50 of the first is lower: less than 0.05 µM for the first, 0.201 to 10 µM for the second.

First: COc1ccc(-c2cccc(C(C)n3ccnc3)n2)cc1 (stereo not drawn) [Example 42, 2-(1-Imidazol-1-yl-ethyl)-6-(4-methoxy-phenyl)-pyridine]
Second: CC(C)CC(c1ccc(-c2ccc(O)cc2)s1)n1ccnc1 (stereo not drawn) [Example 23, 4-(5-(1-(1H-imidazol-1-yl)-3-methylbutyl)-thiophen-2-yl)phenol]
The IC50 of the first is higher: 0.05 to 0.2 µM for the first, less than 0.05 µM for the second.

`CC(c1ccc(-c2ccc(=O)n(C(C)C)c2)s1)n1ccnc1` (stereo not drawn) [Example 21, 5-(5-(1-(1H-imidazol-1-yl)ethyl)thiophen-2-yl)-1-isopropylpyridin-2(1H)-one] and `COc1ccc(-c2ncc(C(C)n3ccnc3)s2)cn1` (stereo not drawn) [Example 58, 5-[5-(1-Imidazol-1-yl-ethyl)-thiazol-2-yl]-2-methoxy-pyridine] fall in the same range of IC50: 0.05 to 0.2 µM for the first, 0.05 to 0.2 µM for the second.

For `CCC(c1nnc(-c2ccc(F)cc2)s1)n1ccnc1` (stereo not drawn) [Example 19, 2-(1-(1H-imidazol-1-yl)propyl)-5-(4-fluorophenyl)-1,3,4-thiadiazole], the IC50 was 0.05 to 0.2 µM.
